Like-named read-outs stand apart in the source and are kept apart here.
Columns and labels:
[1] = system: MiaPaca-2 (expressing KRAS G12C mutant); assay: Proliferation Assay (Cell Viability Assay); format: cell-based; conditions: Homo sapiens, MIA PaCa-2
Procedure: Protocol for Proliferation Assay
This assay is referred to as the “Proliferation Assay” or “Cell Viability Assay” throughout this application.
Cell lines: Human tumor-derived cell lines were purchased from American Type Culture Collection. Human tumor-derived pancreatic cancer cell line MiaPaca-2 (expressing KRAS G12C mutant) and Panc-1 (expressing KRas G12D mutant), and Human non-small cell lung cancer (NSCLC) cell line A549 (expressing KRas G12S mutant) were grown in complete DMEM-High Glucose medium. Human colon cancer cell line SW-620 (expressing KRas G12V mutant) was grown in RPMI 1640 medium. All cell lines were supplemented with penicillin (100 U/mL), streptomycin (100 μg/mL), and 10% heat-inactivated FBS at 37° C. in a humidified incubator with 5% CO2.
(§1) Method: Cells were plated at 2000 to 5000 cells/well density in 96-wells plate and cultured overnight. Small molecules to be tested were added to the cells in the final concentration of 10 μM in the presence of 0.3% DMSO and 10% FBS and incubated for 2-4 days at 37° C. in a humidified incubator with 5% CO2. For IC50 value determination, serial dilutions of compounds were added to cells under the same conditions.
Assay: At the end of the incubation period, cell viability was determined using the CellTiter 96® Aqueous One Solution Cell Proliferation Assay according to manufacturer specifications (Promega, Madison, WI). The percentage of small molecules inhibition of cellular proliferation was calculated from raw data.
Cell lines: these Human tumor-derived cell lines were purchased from American Type Culture Collection. Human tumor-derived pancreatic cancer cell line MiaPaca-2 (expressing KRAS G12C mutant) and Panc-1 (expressing KRas G12D mutant), and Human non-small cell lung cancer (NSCLC) cell line A549 (expressing KRas G12S mutant), and Human melanoma cell line A375 (wild type Kras) were grown in complete DMEM-High Glucose medium. Human tumor-derived pancreatic cancer cell lines SU86.86 (expressing KRas G12D mutant), BxPC3 (expressing wild type K-Ras), and Human non-small cell lung cancer (NSCLC) cell lines NCI-H441 (expressing KRas G12S mutant), NCI-H1975 (expressing wild type KRas), NCI-H358 (expressing KRas G12C mutant), NCI-H1299 (expressing NRas Q61H mutant), and Human colon cancer cell line SW-620 (expressing KRas G12V mutant), Human triple negative breast cancer cell line HCC-1806 (expressing wild type KRas), and Human tumor-derived multiple myeloma cell line MM.1R (expressing wild type KRAS), were grown in RPMI 1640 medium. Human tumor-derived breast cancer cell line BT-549 (expressing wild type KRAS) was grown in RPMI 1640 medium in the presence of 11.8U insulin. Human tumor-derived pancreatic cancer cell line HPAF-II (expressing KRas G12D mutant), Human triple negative breast cancer cell line BT-20 (expressing wild type KRas), and Human colon cancer cell line LS123 (expressing KRas G12S mutant), were grown in EMEM medium. Human tumor-derived pancreatic cancer cell line CF-PAC1 (expressing KRas G12V mutant) was frown in IMDM medium, and Human colon cancer cell line HT29 (expressing wild type KRas) was grown in McCoy's 5A medium. The colon cancer cell line GP2d (expressing KRas G12D mutant) was purchased from MilliporeSigma and grown in DMEM-High Glucose medium. All cell lines were supplemented with penicillin (100 U/mL), streptomycin (100 μg/mL), and 10% heat-inactivated FBS at 37° C. in a humidified incubator with 5% CO2.
as §1, with “that were” for “to be”, “FBS,” for “FBS”

[2] = system: KRas wild type; assay: Ras GTP Binding Domain Inhibition Assay (Ras Superfamily Assay); conditions: 20 μM compound; for KRas wild type + SOS: % inh.: with SOS; for KRas wild type: % inh.: without SOS
From the text: (§2) Biological Example 3: Ras GTP Binding Domain Inhibition Assay
(§3) The assays described in Example 3 are collectively referred to as the “Ras Superfamily Assay” throughout this application.
(§4) A Ras Superfamily Activity Assay (as disclosed in International Application No. PCT/US2018/038613, filed Jun. 20, 2018, which is incorporated by reference in its entirety) was used as a specific assay to evaluate compounds against the following for the following Ras Superfamily proteins: KRas wild type, KRas Q61H mutant, KRas G12C mutant, KRas G12D mutant, Rac-1, and Rho-A.
(§5) • 25 mM Tris-HCl, pH 7.4 • 27 mM KCl • 137 mM NaCl • 1 mM MgCl2 • 1 mM DTT Buffer-II: • 50 mM Tris-HCl, pH 7.0 • 1 mM MgCl2 • 1 mM DTT
(§6) The small GTPases proteins: KRas wild type. KRas Q61H mutant, KRas G12C mutant, KRas G12D mutants, Rac-1, and Rho-A were expressed as His-tagged proteins. In addition, the Guanosine nucleotide Exchange Factor (GEF) Sos protein (residues 556-1049) was expressed as a His-tagged protein. In cells, the guanine nucleotide exchange factor Sos protein promotes activation of Ras proteins by stimulating an exchange of GDP for GTP. The inclusion of Sos to the Ras GTP binding domain inhibition assay may be considered as an alternative representation of physiological cellular conditions for evaluating the inhibitory activity of some of the tested small molecules.
(§7) For the assay, all purified small GTPases proteins were diluted in Buffer-I or Buffer-II to a final concentration of 10-30 μg/mL. 200 μL of each diluted protein was added to a nickel-coated 96-well plate and incubated overnight at 4° C. Then the protein solution was discarded and 200 μL of Buffer-I or Buffer-II was added to each well in the presence of 1% DMSO. Compounds to be tested were added to the protein-coated wells at final concentration of 20 μM, and incubated for 3 hours at room temperature with and without 10-30 μg/mL of Sos added to the final hour of the incubation. When performing IC50 measurements a serial dilution of all tested concentrations was added. Then Cy3-GTP or Cy5-GTP was added to each well to a final concentration of 100 nM. The labeled GTP was incubated for 45 minutes at room temperature. Following GTP incubation, wells were washed 3× in Buffer-I or Buffer-II and 200 μL of Buffer-I or Buffer-II was added to each well. Following washes, the amount of bound labeled-GTP was measured using a SpectraMax M3 (Molecular Devices).

[3] = system: KRas G12D mutant; assay: as above; conditions: 20 μM compound; for KRas G12D mutant + SOS: % inh.: with SOS; for KRas G12D mutant: % inh.: without SOS
From the text: as §2, §3, §4, §5, §6, §7

[4] = target: T1, Rac-1 (Homo sapiens, UniProt P63000); assay: as above; conditions: read-out: Rac-1: % inh.
T1 construct: made in house
From the text: as §2, §3, §4, §5, §6, §7

[5] = read-out: Proliferation in MiaPaca-2: IC50

| IC50 ([1]; MiaPaca2, pancreatic, KRas G12C, read-out: Proliferation assay IC50) | IC50 ([1]; Proliferation assay, MiaPaca-2, read-out: MiaPaca-2 IC50 (nM) Pancreatic) | IC50 [1, 5] | KRas wild type + SOS: % inh. [2] | KRas wild type: % inh. [2] | KRas G12D mutant + SOS: % inh. [3] | KRas G12D mutant: % inh. [3] | inhibition at 20 µM [4] | Compound |
| --- | --- | --- | --- | --- | --- | --- | --- | --- |
| < 150 nM | 10 to 50 nM | 150 to 500 nM | C (C = 50-75% inhibition) | D (D = 76-100% inhibition) | C (C = 50-75% inhibition) | D (D = 76-100% inhibition) | 50 to 75% | COc1cc(Nc2nc(-c3nccn3C)nn3cc(-c4ccn(C(C)C)n4)c(C)c23)ncn1 [Compound 6, 6-(1-Isopropyl-1H-pyrazol-3-yl)-N-(6-methoxypyrimidin-4-yl)-5-methyl-2-(1-methyl-1H-imidazol-2-yl)pyrrolo[2,1-f][1,2,4]triazin-4-amine] |
| – | – | < 150 nM | B (B = 26-49% inhibition) | C (C = 50-75% inhibition) | C (C = 50-75% inhibition) | C (C = 50-75% inhibition) | 76 to 100% | COc1ccnc(Nc2nc(-c3nccn3C)nn3cc(-c4ccn(C(F)F)n4)c(C)c23)n1 [Compound 95, 6-(1-(Difluoromethyl)-1H-pyrazol-3-yl)-N-(4-methoxypyrimidin-2-yl)-5-methyl-2-(1-methyl-1H-imidazol-2-yl)pyrrolo[2,1-f][1,2,4]triazin-4-amine] |
| – | – | 150 to 500 nM | D (D = 76-100% inhibition) | D (D = 76-100% inhibition) | D (D = 76-100% inhibition) | D (D = 76-100% inhibition) | 76 to 100% | Cc1c(-c2ccn(C(C)C)n2)cn2nc(-c3nccn3C)nc(Nc3nccc(OCCN(C)C)n3)c12 [Compound 96, N-(4-(2-(Dimethylamino)ethoxy)pyrimidin-2-yl)-6-(1-isopropyl-1H-pyrazol-3-yl)-5-methyl-2-(1-methyl-1H-imidazol-2-yl)pyrrolo[2,1-f][1,2,4]triazin-4-amine] |
| – | – | < 150 nM | A (A = 1-25% inhibition) | C (C = 50-75% inhibition) | C (C = 50-75% inhibition) | C (C = 50-75% inhibition) | 50 to 75% | COc1cc(Nc2nc(-c3nccn3C)nn3cc(-c4ccn(C(F)F)n4)c(C)c23)ncn1 [Compound 98, 6-(1-(Difluoromethyl)-1H-pyrazol-3-yl)-N-(6-methoxypyrimidin-4-yl)-5-methyl-2-(1-methyl-1H-imidazol-2-yl)pyrrolo[2,1-f][1,2,4]triazin-4-amine] |

The remaining lines, values behind:

| Compound | IC50 ([1]; MiaPaca2, pancreatic, KRas G12C, read-out: Proliferation assay IC50) | IC50 ([1]; Proliferation assay, MiaPaca-2, read-out: MiaPaca-2 IC50 (nM) Pancreatic) | IC50 [1, 5] | KRas wild type + SOS: % inh. [2] | KRas wild type: % inh. [2] | KRas G12D mutant + SOS: % inh. [3] | KRas G12D mutant: % inh. [3] | inhibition at 20 µM [4] |
| --- | --- | --- | --- | --- | --- | --- | --- | --- |
| Cc1c(-c2ccn(C(C)C)n2)cn2nc(-c3ccccn3)nc(O)c12 [Compound 8, 6-(1-Isopropyl-1H-pyrazol-3-yl)-5-methyl-2-(pyridin-2-yl)pyrrolo[2,1-f][1,2,4]triazin-4-ol] | – | – | > 1000 nM | 0 (0 = 0% inhibition) | A (A = 1-25% inhibition) | A (A = 1-25% inhibition) | 0 (0 = 0% inhibition) | 0% |
| Cc1c(-c2ccn(C(C)C)n2)cn2nc(-c3nccn3C)nc(Nc3nccn3C)c12 [Compound 93, 6-(1-Isopropyl-1H-pyrazol-3-yl)-5-methyl-N,2-bis(1-methyl-1H-imidazol-2-yl)pyrrolo[2,1-f][1,2,4]triazin-4-amine] | – | – | 150 to 500 nM | D (D = 76-100% inhibition) | D (D = 76-100% inhibition) | D (D = 76-100% inhibition) | D (D = 76-100% inhibition) | 76 to 100% |
| COc1cc(Nc2nc(-c3nccn3C)nn3cc(-c4ccccn4)c(C)c23)ncn1 [Compound 94, N-(6-Methoxypyrimidin-4-yl)-5-methyl-2-(1-methyl-1H-imidazol-2-yl)-6-(pyridin-2-yl)pyrrolo[2,1-f][1,2,4]triazin-4-amine] | – | – | < 150 nM | B (B = 26-49% inhibition) | C (C = 50-75% inhibition) | B (B = 26-49% inhibition) | C (C = 50-75% inhibition) | 50 to 75% |
| Cc1c(-c2ccn(C(C)C)n2)cn2nc(-c3nccn3C)nc(Nc3cc(OCCO)ncn3)c12 [Compound 97, 2-((6-((6-(1-Isopropyl-1H-pyrazol-3-yl)-5-methyl-2-(1-methyl-1H-imidazol-2-yl)pyrrolo[2,1-f][1,2,4]triazin-4-yl)amino)pyrimidin-4-yl)oxy) ethan-1-ol] | – | – | < 150 nM | D (D = 76-100% inhibition) | D (D = 76-100% inhibition) | D (D = 76-100% inhibition) | D (D = 76-100% inhibition) | 76 to 100% |
| Cc1c(-c2ccn(C)n2)cn2nc(-c3nccn3C)nc(Cl)c12 [Compound 99, 4-Chloro-5-methyl-2-(1-methyl-1H-imidazol-2-yl)-6-(1-methyl-1H-pyrazol-3-yl)pyrrolo[2,1-f][1,2,4]triazine] | – | – | > 1000 nM | B (B = 26-49% inhibition) | C (C = 50-75% inhibition) | B (B = 26-49% inhibition) | B (B = 26-49% inhibition) | 50 to 75% |

From US12459951B2, “Compounds that interact with RAS superfamily proteins for treatment of cancers, inflammatory diseases, rasopathies, and fibrotic disease” (SHY Therapeutics, LLC, priority 2022, dated 2025)
